Among the data in US8124633B2, “Hydroxymethyl ether hydroisoindoline tachykinin receptor antagonists” (Merck Sharp & Dohme Corp., priority 2007, dated 2012) are IC50 and inhibition values, retold here.

For the first experiment, the target named is T1, human neurokinin-1 receptor (NK1R) (Homo sapiens, UniProt P25103).
T1 construct: the cDNA for the human NK1R was cloned into the expression vector pCDM9; expressed in transfected cells
T1 sequence (P25103 whole entry): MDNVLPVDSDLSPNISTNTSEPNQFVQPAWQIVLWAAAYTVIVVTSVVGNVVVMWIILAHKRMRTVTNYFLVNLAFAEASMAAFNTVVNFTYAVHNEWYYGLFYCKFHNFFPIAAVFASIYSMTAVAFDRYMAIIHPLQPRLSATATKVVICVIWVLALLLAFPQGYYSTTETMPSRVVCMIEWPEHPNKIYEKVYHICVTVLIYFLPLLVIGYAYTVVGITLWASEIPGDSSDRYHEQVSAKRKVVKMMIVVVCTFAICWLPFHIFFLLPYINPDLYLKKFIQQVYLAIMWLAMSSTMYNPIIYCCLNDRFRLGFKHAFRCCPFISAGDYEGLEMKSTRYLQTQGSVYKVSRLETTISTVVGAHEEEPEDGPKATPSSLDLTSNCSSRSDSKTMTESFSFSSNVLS
Nature of the experiment: Binding assay of human NK1R expressed in COS or CHO cells (125I-substance P competition). Particulars: 125I-substance P binding to human NK1R expressed in COS or CHO cells. The procedure: Receptor Expression in COS: To express the cloned human neurokinin-1 receptor (NK1R) transiently in COS, the cDNA for the human NK1R was cloned into the expression vector pCDM9 which was derived from pCDM8 (INVITROGEN) by inserting the ampicillin resistance gene (nucleotide 1973 to 2964 from BLUESCRIPT SK+) into the Sac II site. Transfection of 20 ug of the plasmid DNA into 10 million COS cells was achieved by electroporation in 800 ul of transfection buffer (135 mM NaCl, 1.2 mM CaCl2, 1.2 mM MgCl2, 2.4 mM K2HPO4, 0.6 mM KH2PO4, 10 mM glucose, 10 mM HEPES pH 7.4) at 260 V and 950 uF using the IBI GENEZAPPER (1131, New Haven, Conn.). The cells were incubated in 10% fetal calf serum, 2 mM glutamine, 100 U/ml penicillin-streptomycin, and 90% DMEM media (GIBCO, Grand Island, N.Y.) in 5% CO2 at 37° C. for three days before the binding assay.
Stable Expression in CHO: To establish a stable cell line expressing the cloned human NK1R, the cDNA was subcloned into the vector pRcCMV (INVITROGEN). Transfection of 20 ug of the plasmid DNA into CHO cells was achieved by electroporation in 800 ul of transfection buffer supplemented with 0.625 mg/ml Herring sperm DNA at 300 V and 950 uF using the IBI GENEZAPPER (IBI). The transfected cells were incubated in CHO media [10% fetal calf serum, 100 U/ml penicillin-streptomycin, 2 mM glutamine, 1/500 hypoxanthine-thymidine (ATCC), 90% IMDM media (JRH BIOSCIENCES, Lenexa, Kans.), 0.7 mg/ml G418 (GIBCO)] in 5% CO2 at 37° C. until colonies were visible. Each colony was separated and propagated. The cell clone with the highest number of human NK1R was selected for subsequent applications such as drug screening.
Assay Protocol using COS or CHO: The binding assay of human NK1R expressed in either COS or CHO cells is based on the use of ^125I-substance P (^125I-SP, from DU PONT, Boston, Mass.) as a radioactively labeled ligand which competes with unlabeled substance P or any other ligand for binding to the human NK1R. Monolayer cell cultures of COS or CHO were dissociated by the non-enzymatic solution (SPECIALTY MEDIA, Lavallette, N.J.) and resuspended in appropriate volume of the binding buffer (50 mM Tris pH 7.5, 5 mM MnCl2, 150 mM NaCl, 0.04 mg/ml bacitracin, 0.004 mg/ml leupeptin, 0.2 mg/ml BSA, 0.01 mM phosphoramidon) such that 200 ul of the cell suspension would give rise to about 10,000 cpm of specific ^125I-SP binding (approximately 50,000 to 200,000 cells). In the binding assay, 200 ul of cells were added to a tube containing 20 ul of 1.5 to 2.5 nM of ^125I-SP and 20 ul of unlabeled substance P or any other test compound. The tubes were incubated at 4° C. or at room temperature for 1 hour with gentle shaking. The bound radioactivity was separated from unbound radioactivity by GF/C filter (BRANDEL, Gaithersburg, Md.) which was pre-wetted with 0.1% polyethylenimine. The filter was washed with 3 ml of wash buffer (50 mM Tris pH 7.5, 5 mM MnCl2, 150 mM NaCl) three times and its radioactivity was determined by gamma counter. The activation of phospholipase C by NK1R may also be measured in CHO cells expressing the human NK1R by determining the accumulation of inositol monophosphate which is a degradation product of IP3. CHO cells are seeded in 12-well plate at 250,000 cells per well. After incubating in CHO media for 4 days, cells are loaded with 0.025 uCi/ml of 3H-myoinositol by overnight incubation. The extracellular radioactivity is removed by washing with phosphate buffered saline. LiCl is added to the well at final concentration of […] with or without the test compound, and incubation is continued at 37° C. for […]. Substance P is added to the well at final concentration of 0.3 nM to activate the human NK1R. After 30 min of incubation at 37° C., the media is removed and 0.1 N HCl is added. Each well is sonicated at 4° C. and extracted with CHCl3/methanol (1:1). The aqueous phase is applied to a 1 ml Dowex AG 1×8 ion exchange column. […]
The IC50 is the point on the concentration scale where inhibition reaches its midpoint. A low value points to greater potency in that assay. Compound `Cc1ccccc1[C@H]1[C@@H]2CNC[C@H]2CC[C@@H]1O[C@H](CO)c1cc(C(F)(F)F)cc(C(F)(F)F)c1` [Example 2, (2S)-2-[3,5-bis(trifluoromethyl)phenyl]-2-{[(3aR,4R,5S,7aS)-4-(2-methylphenyl)octahydro-1H-isoindol-5-yl]oxy}ethanol] came in with an IC50 of 0.04 nM.

On to `Cc1ccccc1[C@H]1[C@@H]2CN(C3=CC(=O)CC3)C[C@H]2CC[C@@H]1O[C@H](CO)c1cc(C(F)(F)F)cc(C(F)(F)F)c1` [Example 3, 3-[(3aR,4R,5S,7aS)-5-{(1S)-1-[3,5-bis(trifluoromethyl)phenyl]-2-hydroxyethoxy}-4-(2-methylphenyl)octahydro-2H-isoindol-2-yl]cyclopent-2-en-1-one], for which the IC50 was determined as 0.06 nM. On the same count and under the same terms, to `COC[C@@H](O[C@H]1CC[C@@H]2CN(C3=CC(=O)CC3)C[C@H]2[C@@H]1c1ccccc1C)c1cc(C(F)(F)F)cc(C(F)(F)F)c1` [Example 4, 3-[(3aR,4R,5S,7aS)-5-{(1S)-1-[3,5-bis(trifluoromethyl)phenyl]-2-methoxyethoxy}-4-(2-methylphenyl)octahydro-2H-isoindol-2-yl]cyclopent-2-en-1-one] belongs 0.1 nM; to `Cc1ccccc1[C@H]1[C@@H]2CN(C3=NC(=O)CO3)C[C@H]2CC[C@@H]1O[C@H](CO)c1cc(C(F)(F)F)cc(C(F)(F)F)c1` [Example 5, 2-[(3aR,4R,5S,7aS)-5-{(1S)-1-[3,5-bis(trifluoromethyl)phenyl]-2-hydroxyethoxy}-4-(2-methylphenyl)octahydro-2H-isoindol-2-yl]-1,3-oxazol-4(5H)-one], 0.06 nM; to `Cc1ccccc1[C@H]1[C@@H]2CN(C(=O)N(C)C)C[C@H]2CC[C@@H]1O[C@H](CO)c1cc(C(F)(F)F)cc(C(F)(F)F)c1` [Example 6, (3aR,4R,5S,7aS)-5-{(1S)-1-[3,5-bis(trifluoromethyl)phenyl]-2-hydroxyethoxy}-N,N-dimethyl-4-(2-methylphenyl)octahydro-2H-isoindole-2-carboxamide], 0.03 nM. `Cc1ccccc1[C@H]1[C@@H]2CN(C(=O)C(C)C)C[C@H]2CC[C@@H]1O[C@H](CO)c1cc(C(F)(F)F)cc(C(F)(F)F)c1` [Example 7, (2S)-2-[3,5-bis(trifluoromethyl)phenyl]-2-{[(3aR,4R,5S,7aS)-2-isobutyryl-4-(2-methylphenyl)octahydro-1H-isoindol-5-yl]oxy}ethanol] gave an IC50 of 0.08 nM. Same read-out and setting: then `O=C1COC(N2C[C@H]3CC[C@H](O[C@H](CO)c4cc(C(F)(F)F)cc(C(F)(F)F)c4)[C@@H](c4ccc(F)cc4)[C@@H]3C2)=N1` [Example 8], with 0.03 nM. `O=C1C=C(N2C[C@H]3CC[C@H](O[C@H](CO)c4cc(C(F)(F)F)cc(C(F)(F)F)c4)[C@@H](c4ccc(F)cc4)[C@@H]3C2)CC1` [Example 9] displayed an IC50 of 0.09 nM. This IC50 is about 3-fold higher than that of the compound before.

Regarding `Cc1cc(F)ccc1[C@H]1[C@@H]2CN(C3=NC(=O)CO3)C[C@H]2CC[C@@H]1O[C@H](CO)c1cc(C(F)(F)F)cc(C(F)(F)F)c1` [Example 10], the IC50 is 0.03 nM. On the same count and under the same terms, to `Cc1cc(F)ccc1[C@H]1[C@@H]2CN(C3=CC(=O)CC3)C[C@H]2CC[C@@H]1O[C@H](CO)c1cc(C(F)(F)F)cc(C(F)(F)F)c1` [Example 11] belongs 0.03 nM; to `Cc1ccccc1[C@H]1[C@@H]2CN(C(=O)C(C)(C)C)C[C@H]2CC[C@@H]1O[C@H](CO)c1cc(C(F)(F)F)cc(C(F)(F)F)c1` [Example 12], 0.07 nM. For `Cc1ccccc1[C@H]1[C@@H]2CN(C(=O)C3CC3)C[C@H]2CC[C@@H]1O[C@H](CO)c1cc(C(F)(F)F)cc(C(F)(F)F)c1` [Example 13], the IC50 is 0.06 nM. Same read-out and setting: then `COC[C@@H](O[C@H]1CC[C@@H]2CN(C(=O)N(C)C)C[C@H]2[C@@H]1c1ccccc1C)c1cc(C(F)(F)F)cc(C(F)(F)F)c1` [Example 14], with 0.46 nM. The same measure, in the same setting: to `OC[C@@H](O[C@H]1CC[C@@H]2CNC[C@H]2[C@@H]1c1ccc(F)cc1)c1cc(C(F)(F)F)cc(C(F)(F)F)c1` [Example 16] belongs 0.35 nM; to `O=C1C=C(N2C[C@H]3CC[C@H](O[C@@H](CO)c4cc(C(F)(F)F)cc(C(F)(F)F)c4)[C@@H](c4ccc(F)cc4)[C@@H]3C2)CC1` [Example 21], 55 nM; to `Cc1ccccc1[C@H]1[C@@H]2CNC[C@H]2CC[C@@H]1O[C@@H](CO)c1cc(C(F)(F)F)cc(C(F)(F)F)c1` [Example 22], 2.2 nM. The same measure, in the same setting: then `Cc1ccccc1[C@H]1[C@@H]2CN(C(=O)C(C)(C)C)C[C@H]2CC[C@@H]1O[C@@H](CO)c1cc(C(F)(F)F)cc(C(F)(F)F)c1` [Example 24], with 45 nM.

The experiment is the same for the next values; noted with them: at 0.1 nM; 125I-substance P binding to human NK1R.
By inhibition is commonly meant how much of the control response was suppressed. Lower therefore signals a weak effect. `OC[C@H](O[C@H]1CC[C@@H]2CNC[C@H]2[C@@H]1c1ccc(F)cc1)c1cc(C(F)(F)F)cc(C(F)(F)F)c1` [Example 27] yielded an inhibition at 0.0001 µM of 47%.
